Earlier results, collected in US20150361500A1, “BIOMARKERS FOR DIAGNOSIS AND TREATMENT OF ACNE VULGARIS” (DermTech International, priority 2013, published 2015).

System: acne

In the case of `O=C(OOC(=O)c1ccccc1)c1ccccc1` [Benzoyl peroxide], the tolerability (2.5% concentration compared with 5 and 10%) is given as “usually better tolerated”, the “effectiveness in acne treatment” value (5 and 10% concentrations compared with 2.5%) is given as “not significantly more effective” and the skin reactions (gel or cream applied to affected areas) is given as “commonly causes initial dryness and sometimes irritation”.
